# Source: patent publication US20100233096A1, “METHOD TO PRODUCE HYPERPOLARISED CARBOXYLATES AND SULPHONATES” (priority 2006, published 2010)
# Tests used:
# [1] = compared with NH4-acetate or Ca-acetate; solubility data available in the literature; cited from earlier work
# [2] = T1 relaxation in human full blood; format: physicochemical; settings: human full blood at 37° C.
# Source text: The amount of alanine, bicarbonate and lactate is dependent on the metabolic status of the tissue under investigation.
SMILES,solubility in water [1],T1 relaxation [2]
CC(=O)[O-].[Cs+] [Cs-acetate],higher solubility in water,
CC(=O)[13C](=O)O [^13C-pyruvate],,about 42 s
